Like-named read-outs stand apart in the source and are kept apart here.
Key:
[1] = in vivo; conditions: rat; for Pentamidine concentration, Kidney: aerosol 0.4 mg/kg/day, 24 h after last dose
Procedure: (§1) Rats were treated in groups of four. […] Doses in all trials were calculated as above.

[2] = in vivo
Procedure: The dose was calculated from the product of the concentration of the drug in the chamber, the minute volume of the rats (lung vol.×resp. rate), and the time of exposure. In all experiments exposure time was 15 min, male Sprague-Dawley rats with an average weight of 250 g were used, and the minute volume of the rats was assumed to be 70 ml. Rats were treated in groups of four. […] The aerosol was generated by oxygen flowing at 8 l/min through the nebulizer (Cadema Medical Products, part no. CA 61, Middletown, N.Y.). The drug solution was aerosolized at 0.3 ml/min with an expected mean particle diameter of 0.5-0.8 micron. […] This concentration multiplied by the minute volume and the exposure time gives a dose of 1.0 mg; since the rats weighed 0.25 kg, the dose was 4.0 mg/kg. Doses in all trials were calculated as above.
Four rats were studied at each time.

[3] = in vivo; conditions: rat; for concentration at 24 h: inhaled or intranasal, 3.2 mg/kg/day, aerosol 3.2 mg/kg daily × 4, 24 h after last dose
Procedure: as §1
Treatments were well-tolerated. […] There were rare foci of mild thickening of interalveolar septae containing a few histiocytes and some congestion. […] These were also seen in sections from control animals and are common findings in normal rat lung.

[4] = human, in vivo
Description: Patients were 18 years old or older and outpatients judged free of any imminently-critical medical problems. All patents received a complete physical examination and medical history evaluation. Pretreatment laboratory studies included a CBC with differential and platelet count, a biochemical screening profile, chest X-ray, and pulmonary function tests including spirometry and measurement of diffusion capacity.
Each patient was issued a device at the start of the study. These devices were labeled with the patient's code number. The devices are simple to operate and their sterility was ensured as components were replaced after a single use. New sterile plastic reservoirs for the drug solution and new sterile suction rods were used for each treatment.
(§2) Each aerosol treatment was given over 15-30 minutes. […] 1.0, 1.5,or 2.0 ml aliquots were added to the nebulizer reservoir for doses of 30, 45, or 60 mg, respectively. Sterile pyrogen-free water was added to yield a total volume of 3.0 ml. Treatments were administered by a physician or registered nurse.
Signs of systemic toxicity were monitored. To detect adverse effects on the lungs, pulmonary function was monitored.
All problems were judged a concomitant illness or adverse reaction based on the following definitions. […]
Patients were interviewed before and after each treatment and any adverse reactions, complaints, or comments recorded. […]

[5] = test system: Pneumocystis carinii; experiment: Clinical effectiveness of aerosol pentamidine in prophylaxis of PCP; format: in vivo, human
Procedure: as §2
Prophylaxis was judged effective for an individual patient if that patient had no proven or probable episodes of PCP. Prophylaxis was considered a proven failure if a patinet developed pneumonia and P. carinii was found in stained preparations obtained by bronchoscopy or lung biopsy. Prophylaxis was considered a probable failure if a patient develops pneumonia and responded to empiric treatment with SXT […]. If a patient died and no autopsy was perfomed, the case was considered not evaluable unless there was evidence that the patient had good antemortem pulmonary function and died from other causes. If the latter conditions were met, the case was considered a probable success.
The treatment period was three months; patients were examined before and after each treatment and underwent pulmonary function testing and biochemical and hematologic tests before treatment no. 1 and after treatment nos. 1, 2, 4, and 6.
A total of 650 treatments were given. Treatment periods ranged from 1-12 months. […] They had no reactions after their first four doses and was receiving several other medications at the time the rash developed. […] Five proven episodes of PCP have occurred among patients who received biweekly doses of 30 mg; six proven episodes of PCP have occurred among patients who were treated with this dose, but who skipped one or more scheduled doses.
A total of 73 patients were enrolled over the past two months with approximately equal numbers at each dose level. […] Patients who were receiving the low dose have since been randomized to receive either 45 or 60 mg. To date two patients receiving 45 mg have had proven episodes of PCP.

[6] = test system: Pneumocystis carinii; conditions: patients with AIDS, IV or IM 4 mg/kg/day, 14-21 days; cited from earlier work
[7] = test system: Pneumocystis carinii; conditions: animal model of PCP; cited from earlier work
[8] = in vivo; conditions: rat, im, 4 mg/kg, level in the lungs
Procedure: Intramuscular (IM) doses were administered to the hindcalves of male Sprague-Dawley rats (240-260 g, Charles River Breeding Laboratories, Wilmington, Mass.).
Animals were sacrificed at 24 h after the last dose.

[9] = cited from earlier work
[10] = Pentamidine tissue concentrations in humans after intravenous infusions; conditions: human, IV 4.0 mg/kg/day
[11] = rat, in vivo, inhaled or intranasal, 4 mg/kg
[12] = aerosol 45 mg, weekly for four weeks then biweekly

Structure (SMILES): N=C(N)c1ccc(OCCCCCOc2ccc(C(=N)N)cc2)cc1 [pentamidine, Pentamidine isethionate]
- Pentamidine concentration, Kidney ([1]; 1 dose): NMA
- Pentamidine concentration, Kidney ([1]; 2 doses): NMA
- Pentamidine concentration, Kidney ([1]; 4 doses): NMA
- concentration at 24 h ([1]; in vivo, inhaled or intranasal, 0.4 mg/kg/day, levels in the lung): 60500 ng/g
- amount retained per animal ([2]; rat, in vivo, 4 mg/kg): 60 µg
- fraction of inhaled drug retained ([2]; rat, in vivo, 4 mg/kg): about 6.0%
- retained dose ([2]; rat, in vivo, 4 mg/kg): 0.24 mg/kg
- amount of drug retained in the lungs [2, 11]: about 40 mcg/g
- half-life [2, 11]: 36 days
- retention in the lungs ([2]; single aerosol dose): retained in the lungs for many weeks
- concentration at 24 h ([3]; kidney): 7200 ng/g
- concentration at 24 h ([3]; lung): 291000 ng/g
- lung weight and appearance ([3]; aerosol 3.2 mg/kg daily × 4): normal in weight and appearance
- toxicity of high lung concentrations ([3]; aerosol 3.2 mg/kg daily × 4): little or no toxicity
- tolerability of treatments ([3]; aerosol 3.2 mg/kg daily × 4 (total dose 12.8 mg/kg)): well-tolerated
- histopathology of lungs ([3]; aerosol 3.2 mg/kg daily × 4, stained sections): no histopathologic changes were found
- tolerability of treatments [4]: well tolerated
- proven episodes of PCP ([5]; aerosol 30 mg biweekly, 60 patients, 1-12 months): Five
- proven episodes of PCP in patients who skipped one or more scheduled doses ([5]; aerosol 30 mg biweekly, skipped doses): six
- proven or possible episodes of PCP ([5]; aerosol 30 mg biweekly, twelve patients, three months): no patient had a proven or possible episode of PCP
- protection ([5]; aerosol 30 mg dose): not reliably protective
- patients with proven episodes of PCP [5, 12]: two
- severity of PCP episodes [5, 12]: very mild episodes
- mild cases of PCP ([5]; all phases, 960 doses, 116 patients): seven
- protection ([5]; all phases, preliminary evidence): at least partially protective
- treatment of PCP infection [6]: highly effective in treatment of PCP infection
- prophylaxis of PCP with IV or IM pentamidine [7]: unsuccessful in the animal model of PCP
- concentration at 24 h [8]: 800 ng/g
- elimination from blood ([9]; IV or IM): eliminated rapidly from blood
- elimination from tissues ([9]; in vivo): eliminated slowly from them
- Pentamidine concentration, Adrenal ([10]; 1 dose): 19 µg/g
- Pentamidine concentration, Kidney ([10]; 1 dose): 8.5 µg/g
- Pentamidine concentration, Liver ([10]; 1 dose): 35 µg/g
- Pentamidine concentration, Spleen ([10]; 1 dose): 40 µg/g
- Pentamidine concentration, Kidney ([10]; 2 doses): 13 µg/g
- Pentamidine concentration, Liver ([10]; 2 doses): 23 µg/g
- Pentamidine concentration, Spleen ([10]; 2 doses): 40 µg/g
- Pentamidine concentration, Kidney ([10]; 5 doses): 62 µg/g
- Pentamidine concentration, Liver ([10]; 5 doses): 112 µg/g
- Pentamidine concentration, Lung ([10]; 5 doses): 42 µg/g
- Pentamidine concentration, Spleen ([10]; 5 doses): 28 µg/g
- Pentamidine concentration, Adrenal ([10]; 15 doses): 92 µg/g
- Pentamidine concentration, Kidney ([10]; 15 doses): 123 µg/g
- Pentamidine concentration, Liver ([10]; 15 doses): 300 µg/g
- Pentamidine concentration, Lung ([10]; 15 doses): 56 µg/g
- Pentamidine concentration, Spleen ([10]; 15 doses): 368 µg/g

From patent US5262157A (priority 1988, dated 1993)
